The test system of data set [1] is vascular smooth muscle cells. In words: Lamellipodium formation assay. The class given is cell-based, mouse. The following applies: for lamellipodium index: 5% serum, 3 hrs. More on the design: effect on morphology of vascular smooth muscle cells: dose or concentration left out as unconfirmed. As for the experimental part:
Mouse vascular smooth muscle cells, isolated as described (13), were maintained in 231 media (Cascade Biologics, Portland, Oreg.) supplemented with SMGS (Cascade Biologics) in a humidified incubator at 37° C. with 5% CO2. Cells from passages 4-9 were used in all experiments. All experiments were performed in subconfluent, unsynchronized cells growing in SMGS except for the lamellipodium formation assay.
The lamellipodium formation assay was performed as described (14). In brief, mouse vascular smooth muscle cells (serum-starved for 24 hrs) were seeded onto fibronectin-coated wells of chamber slides (CultureSlide, BD BioCoat Fibronectin) and incubated with various concentrations of morelloflavone (0, 1, and 10 mM) in the presence or absence of serum for 3 hrs at 37° C. Then, cells were fixed with 4% paraformaldehyde, permeabilized with 0.1% Triton X-100, stained with Alexa Fluor 594-Phallidin (Invitrogen-Molecular Probes) and DRAQ5 (Biostatus, Ltd, Leicestershire, UK), and viewed with the use of a Leica DM6000 confocal microscope. Lamellipodium indices were calculated as the number of lamellipodia divided by the total number of cells counted.

The nature of another data set: Analysis of lipids. The class given is in vivo, mouse. The note with it: Ldlr−/−Apobec1−/− mice, morelloflavone diet 8 months. As for the experimental part: Plasma levels of triglycerides, total cholesterol, phospholipids, and non-esterified fatty acids of control and morelloflavone-treated animals were measured and using commercially available kits according to manufacturer's instruction (Randox Laboratories, Crumlin, UK; Thermo Fisher Scientific, Waltham, Mass.; Wako Chemicals, Richmond, Va.).

A short description of data set [2]: Body weight in atherosclerosis study. In kind it is in vivo, mouse. On the procedure:
Twenty four (24) 8 week old Ldlr^−/−Apobec1^−/− mice were randomly assigned to either control group (normal rodent chow, Lab Diet, Richmond, Ind., N=12) or morelloflavone group (normal rodent chow supplemented with 0.003% (w/w) morelloflavone, N=12). The 0.003% (w/w) morelloflavone corresponds to approximately 4 mg/kg morelloflavone for 30 gram animals that consume 4 grams of chow. Animals were housed individually in an air-conditioned room with 12-h light/dark cycle with access to food and water. Body weight of these mice was monitored monthly. After 8 months, animals were sacrificed for analyses of atherosclerosis. Just prior to the sacrifice, blood was sampled from the heart and collected into micro-centrifuge tubes containing EDTA. The entire aortae were excised. All animal experimentation protocols were performed according to the protocol approved by the Institutional Animal Care and Use Committee (IACUC) of the University of Texas Health Science Center at Houston, in accordance with the National Institutes of Health guidelines.

The next data set has as its target sPLA2-IB (Homo sapiens, UniProt P04054). The experiment in a line: sPLA2 enzyme activity assay, Group IB. The following applies: recombinant human sPLA2-IB, data not shown. In kind it is biochemical. As for the experimental part: Recombinant human sPLA2 isoforms, Group IB, Group IIA, Group V, and Lp-PLA2 were obtained from R&D Systems and Cayman Chemical Co. sPLA2 enzyme activities in the presence of various concentrations of morelloflavone or other inhibitors were determined using a commercially available assay system according to the manufacturer's instructions (Cayman Chemical Co.). Thioetheramide-1-palmitylthio-2-palmitoylamido-1,2-dideoxy-sn-glycero-3-phosphorylcholine (T-PC) and methyl arachidonyl fluorophosphonate (MAFP) were used as inhibitors of sPLA2 (IB, IIA, and V) and Lp-PLA2, respectively, per manufacturers' instructions.

In a further data set the test system is ERK. The experiment in a line: Western blot, phosphorylation of ERK. The note with it: low concentrations (0.1 & 1 mM). The class given is cell-based, mouse. On the procedure: To assess the phosphorlyation status of ERK, […] of whole cell lysates was loaded onto SDS-PAGE, and Western blot analysis was done using anti-p-ERK (Santa Cruz; E-4; sc-7383) and anti-ERK (Santa Cruz; K-23; sc-94) antibodies. To detect active RhoA, Rac1 and Cdc42, generated GST-tagged RhoA binding domain of Rhotekin protein (GST-Rhotekin-RBD) and GST-tagged p21-binding domain of p21-activated kinase 1 (PAK1)(GST-PAK1-PBD) were first generated. Briefly, E. coli BL21 cells transformed with pGEX4T-PAK1-PBD or pGEX4T-Rh,otekin-RBD were grown at 37° C. and expression of recombinant protein was induced by addition of 0.1 mM IPTG for 3 hours. Cells were resuspended in lysis buffer (50 mM Tris-HCl, pH 8.0, 10% glycerol, 20% sucrose, 2 mM DTT, 1 mg/ml leupeptin, 1 mg/ml pepstatin, and 1 mg/ml aprotinin), sonicated, and centrifuged at 4° C. for 30 min at 45,000 g. The supernatant was incubated with glutathione sepharose 4B beads (GE-Amersham, Piscataway, N.J.) for 1 hour at 4° C., and then washed 3 times in lysis buffer. Using these GST-proteins, GTPase activation assays were performed as described.

In data set [3] the test system is vascular smooth muscle cells. In words: Cell attachment. The class given is cell-based.

Entries after “also recorded” stand apart in the source; their conditions may differ. Some results are limits rather than exact numbers.

One may read the IC50 as the point on the concentration scale where inhibition reaches its midpoint.

Chain of sPLA2-IB (P04054 23-148): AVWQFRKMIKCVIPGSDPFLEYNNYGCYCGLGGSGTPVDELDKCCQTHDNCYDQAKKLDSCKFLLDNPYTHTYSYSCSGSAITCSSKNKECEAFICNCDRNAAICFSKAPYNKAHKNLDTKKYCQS

In the case of `O=C1c2c(O)cc(O)cc2O[C@H](c2ccc(O)cc2)[C@H]1c1c(O)cc(O)c2c(=O)cc(-c3ccc(O)c(O)c3)oc12` [morelloflavone, 5,7, 4′, 5″, 7″, 3″, 4″-heptahydroxy-[3,8″]-flavonylflavanone], the lamellipodium index was determined as 0.05±0.001 in data set [1] (1 mM morelloflavone) and 0.033±0.006 in data set [1] (10 mM morelloflavone). In addition, in data set [1] (absence of serum, any concentration (0, 1)), the “effect on morphology of vascular smooth muscle cells” value is “did not change the morphology”. Also, in data set [1] (serum stimulated, 1-10 mM), the “effect on lamellipodium indices / formation” value is given as “significantly decreased lamellipodium indices in a dose-dependent fashion; also recorded: failed to increase lamellipodium indices; also recorded: blocks”. In addition, in the data set “Analysis of lipids”, the “change in serum phospholipid concentration” value was “no changes”. In “Analysis of lipids”, the “non-esterified fatty acid levels” value worked out at 0.89±0.13. The same molecule showed a serum cholesterol in “Analysis of lipids” of 507.2 ± 95.8 mg/dL. The molecule also had a serum triglycerides in “Analysis of lipids” of 179.9±28.0. Further, the Body weight in data set [2] (1 month) came to 22.6 ± 1.5 gm; in data set [2] (2 months), 24.0 ± 1.6 gm; in data set [2] (3 months), 25.4 ± 1.5 gm; in data set [2] (4 months), 26.2 ± 1.5 gm; in data set [2] (5 months), 26.8 ± 1.3 gm; in data set [2] (6 months), 27.5 ± 1.7 gm. Moreover, the Body weight in data set [2] (7 months) is recorded as 28.2 ± 2.5 gm; in data set [2] (Final (8 months)) it was 28.4±2.3 gm; in data set [2] (Final (8 months), listed as Morelloflavone), 28.4 ± 2.3 gm; in data set [2] (Initial (0 month), Ldlr−/−Apobec1−/− mice, N = 12), 22.3 ± 1.4 gm. For the same molecule, the half-inhibitory concentration (IC50) at sPLA2-IB is greater than 10 µM. Moreover, the “phosphorylation of ERK” value in the data set with ERK is listed as “inhibited; also recorded: robustly decreased phosphorylation; also recorded: blocks”. In data set [3], the “effect on cell attachment” value is “does not affect cell attachment”.

(Values after patent US20110217293A1, “Uses of morelloflavone” (priority 2008, published 2011).)
